According to article PMC3227451, “Structure-based development of novel sirtuin inhibitors” (Aging (Albany NY), 2011):
Read-outs that look alike come from different tables or passages of the source.

How the values were obtained:
Format in all cases: biochemical
Sirt2 = biological target: T1, Sirt2 (Homo sapiens, UniProt Q8IXJ6); test: Fluor-de-Lys peptide deacetylation assay, Sirt2
T1 sequence (Q8IXJ6 34-356): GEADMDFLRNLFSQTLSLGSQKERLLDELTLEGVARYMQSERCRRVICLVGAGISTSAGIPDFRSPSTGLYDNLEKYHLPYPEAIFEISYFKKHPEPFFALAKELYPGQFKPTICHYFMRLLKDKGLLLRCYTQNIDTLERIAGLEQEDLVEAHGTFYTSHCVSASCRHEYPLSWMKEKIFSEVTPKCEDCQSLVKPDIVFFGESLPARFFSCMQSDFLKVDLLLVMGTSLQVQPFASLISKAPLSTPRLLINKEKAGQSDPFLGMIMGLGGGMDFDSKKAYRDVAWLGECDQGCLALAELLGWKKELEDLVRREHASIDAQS
Protocol: The Sirt2 construct was expressed in E. coli Rosetta2 cells (Merck) in LB/Ampicillin/Chloramphenicol medium. Cells were grown at 37 °C, and expression induced at an OD600 of 0.6-0.8 for 4 h with 0.5 mM IPTG. Harvested cells were resuspended in buffer A (50 mM Tris/HCl pH 7.8, 200 mM NaCl, 2 mM DTT), disrupted with a Sonifier, and cell debris removed by 40 min centrifugation at 4 °C, 18000 rpm in a HFA22.50 rotor. The supernatant was supplemented with 10 mM imidazole and incubated with Ni-NTA resin for 1 h at 4 °C. […] The protein was concentrated in an amicon unit (Millipore, Billerica, USA) and digested over night at 4 °C with TEV-protease. The protease was removed from cleaved Sirt2 by incubation with Ni-NTA resin for 1 h at 4 °C. The protein was concentrated, 1:5 diluted with 50 mM Tris/HCl, pH 7.8, and applied to a HiTrap Q anion exchange column (GE Healthcare) equilibrated with 50 mM Tris/HCl, pH 7.8, 50 mM NaCl, 2 mM DTT and eluted with a gradient (20 column volumes) to 50 mM Tris/HCl, pH 7.8, 1 M NaCl, 2 mM DTT. Sirt2 was then applied to a Superdex200 gel filtration column (GE Healthcare) equilibrated in 20 mM Tris/HCl, pH 7.8, 150 mM NaCl, 2 mM DTT. The eluted protein was analyzed by SDS-PAGE, re-concentrated, and shock-frozen in liquid nitrogen for storage at -80 °C.
(§1) The commercial Fluor-de-Lys (FdL) assay kits 1 and 2 (Biomol, Plymouth Meeting, USA) were used to test the deacetylase activity of the four Sirtuins. In both kits the substrate derived from p53 is composed of three amino acids, the acetyl lysine and a C-terminally attached fluorophor. For Sirt2 and 3, FdL-2 peptide (QPK(acetyl-K)) was used, and FdL-1 peptide (RHK(acetyl-K)) for Sirt5 and Sirt6. All tests were done with 0.1 mM of the respective FdL peptide and 0.5 mM NAD^+ as substrates.
(§2) NCI compound stocks were prepared by dissolving them in DMSO at a concentration of 5 mM. The initial screens with all 40 compounds contained 5 μl Sirtuin solution (Sirt2/3 0.1 mg/ml stock concentration; Sirt5/6 1 mg/ml), 1 μl of compound stock (resulting in a 100 μM end concentration), 15 μl FdL substrate, and assay buffer (supplied in the assay kit) to a total volume of 50 μl. As control reactions, peptide with either the compound (without Sirtuin) or with Sirtuin and DMSO instead of compound were measured. After starting the reactions by adding the FdL substrate, assays were incubated for 30 min at 37 °C. Subsequently, 50 μl of a 10 mg/ml trypsin stock (“Developer solution”) were added and the reactions were incubated for 45 min at room temperature. Fluorescence values were measured in a fluorometric plate reader with excitation at 360 nm and read out at 485 nm. Values were then corrected with the control reaction (same compound, but without Sirtuin).
(§3) All measurements shown are averages of duplicates (screen) or triplicates (dose-response curves), and representatives of at least two independent replications. Error bars indicate standard deviations.

Sirt3 = biological target: T2, Sirt3 (Homo sapiens, UniProt Q9NTG7); test: Fluor-de-Lys peptide deacetylation assay, Sirt3
T2 construct: Sirt3 residues 114-399; His-tag with linker comprising a TEV protease cleavage site (N); made in house; host or cells: E. coli
T2 sequence (Q9NTG7 114-399): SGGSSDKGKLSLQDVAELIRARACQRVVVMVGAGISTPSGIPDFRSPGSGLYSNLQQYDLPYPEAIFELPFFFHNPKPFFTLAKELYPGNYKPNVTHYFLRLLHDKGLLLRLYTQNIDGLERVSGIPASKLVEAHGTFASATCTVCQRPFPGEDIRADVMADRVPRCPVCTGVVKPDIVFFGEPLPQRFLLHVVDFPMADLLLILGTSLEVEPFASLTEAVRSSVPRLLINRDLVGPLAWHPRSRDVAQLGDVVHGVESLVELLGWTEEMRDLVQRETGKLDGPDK
Protocol: (§4) Sirt3 was expressed in E. coli and purified via Ni-NTA and size exclusion chromatography as described elsewhere, and Sirt5 according to the protocol of Schuetz et al.. […] The protein was bound to the HiTrapQ column in buffer A and eluted in a gradient to buffer A supplemented with 400 mM KCl. Fractions were analyzed by SDS-PAGE, and the Sirt1 fractions were pooled and transferred into buffer A using a NAP column (GE Healthcare).
as §1, §2, §3

Sirt5 = biological target: T3, Sirt5 (Homo sapiens, UniProt Q9NXA8); test: Fluor-de-Lys peptide deacetylation assay, Sirt5
T3 construct: Sirt5 residues 34-302; His-tag with linker comprising a TEV protease cleavage site (N); made in house
T3 sequence (Q9NXA8 34-302): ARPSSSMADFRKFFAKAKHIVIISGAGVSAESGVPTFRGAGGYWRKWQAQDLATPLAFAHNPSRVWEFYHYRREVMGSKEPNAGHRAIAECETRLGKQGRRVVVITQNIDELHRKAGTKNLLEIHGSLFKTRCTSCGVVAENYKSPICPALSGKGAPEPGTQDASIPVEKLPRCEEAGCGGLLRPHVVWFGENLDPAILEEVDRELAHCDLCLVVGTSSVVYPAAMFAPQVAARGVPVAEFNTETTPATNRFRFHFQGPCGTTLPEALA
Protocol: as §4, §1, §2, §3

Sirt6 = biological target: T4, Sirt6 (Homo sapiens, UniProt Q8N6T7); test: Fluor-de-Lys peptide deacetylation assay, Sirt6
T4 construct: Sirt6 residues 13-308; His-tag with linker comprising a TEV protease cleavage site (N, cleaved yes); made in house; host or cells: E. coli Rosetta2
Protocol: as §1, §2, §3

[1] = 100 μM compound, 0.1 mM FdL-2 peptide, 0.5 mM NAD+
[2] = 100 μM compound, 0.1 mM FdL-1 peptide, 0.5 mM NAD+

T4 sequence (Q8N6T7 13-308): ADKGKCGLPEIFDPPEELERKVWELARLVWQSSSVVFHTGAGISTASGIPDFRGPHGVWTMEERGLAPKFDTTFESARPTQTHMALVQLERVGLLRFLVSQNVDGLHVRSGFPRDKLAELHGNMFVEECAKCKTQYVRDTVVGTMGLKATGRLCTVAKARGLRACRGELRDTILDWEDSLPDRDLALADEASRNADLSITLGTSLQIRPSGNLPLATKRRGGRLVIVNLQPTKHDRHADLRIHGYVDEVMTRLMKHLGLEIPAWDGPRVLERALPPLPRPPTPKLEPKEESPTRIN

SMILES	Effect on the activity of Sirt2 (Sirt2; [1])	Effect on the activity of Sirt3 (Sirt3; [1])	Effect on the activity of Sirt5 (Sirt5; [2])	Effect on the activity of Sirt6 (Sirt6; [2])	Effect on the activity of Sirt2 (Sirt2)	Effect on the activity of Sirt3 (Sirt3)	Effect on the activity of Sirt5 (Sirt5)	Effect on the activity of Sirt6 (Sirt6)
O=C(Nc1ccc(Nc2ccc3c(c2)C(=O)c2ccccc2C3=O)c2c1C(=O)c1ccccc1C2=O)c1ccccc1 [CSC17, N-(4-((9,10-dioxo-9,10-dihydro-2-anthracenyl)amino)-9,10-dioxo-9,10-dihydro-1-anthracenyl)benzamide, (Indanthrene Corinth RK)]	--- (no such effect)	--- (no such effect)	--- (no such effect)	--- (no such effect)	–	–	–	–
O=C1C2C3c4ccccc4C(C2C(=O)N1c1ccc(OCc2ccccc2)cc1)[n+]1ccccc13 (centres unmarked) [CSC34]	inhibition (significant inhibitory effects (>25% loss of activity))	--- (no such effect)	--- (no such effect)	activation	–	–	–	–
O=C1c2ccccc2C(=O)c2c(Nc3cc4c5c(ccc6c7ccc8c9c(cc(Nc%10cccc%11c%10C(=O)c%10ccccc%10C%11=O)c(c3c56)c97)-c3ccccc3C8=O)C(=O)c3ccccc3-4)cccc21 [CSC6, 16,17-bis((9,10-dioxo-9,10-dihydro-1-anthracenyl)amino)anthra[9,1,2-cde]benzo[rst]pentaphene-5,10-dione]	inhibition (significant inhibitory effects (>25% loss of activity))	--- (no such effect)	--- (no such effect)	inhibition (significant inhibitory effects (>25% loss of activity))	–	–	–	–
O=C(C[n+]1ccc2ccccc2c1)c1ccc2ccc3ccccc3c2c1 [CSC10, 2-(2^5-isoquinolin-2-yl)-1-(3-phenanthryl)ethanone]	–	–	–	–	inhibition (key: inhibition: significant inhibitory effects (>25% loss of activity); ---: no such effect)	inhibition (key: inhibition: significant inhibitory effects (>25% loss of activity); ---: no such effect)	--- (key: inhibition: significant inhibitory effects (>25% loss of activity); ---: no such effect)	inhibition (key: inhibition: significant inhibitory effects (>25% loss of activity); ---: no such effect)
O=S(=O)(c1ccc2ccccc2c1)N1CCN(S(=O)(=O)c2ccc3ccccc3c2)CC1 [CSC12, 1,4-bis(2-naphthylsulfonyl)piperazine]	--- (no such effect)	--- (no such effect)	--- (no such effect)	--- (no such effect)	–	–	–	–
Cc1ccc(C(=N)c2ccccc2Cc2cccc3ccccc23)c2ccccc12 [CSC24, (4-methyl-1-naphthyl)(2-(1-naphthylmethyl)phenyl)methanimine]	inhibition (significant inhibitory effects (>25% loss of activity))	--- (no such effect)	--- (no such effect)	--- (no such effect)	–	–	–	–
O=C1c2cccc([N+](=O)[O-])c2C(=O)N1c1ncn[nH]1 [CSC25, 4-(hydroxy(oxido)amino)-2-(1H-1,2,4-triazol-5-yl)-1H-isoindole-1,3(2H)-dione]	--- (no such effect)	--- (no such effect)	--- (no such effect)	--- (no such effect)	–	–	–	–
O=C1c2ccccc2C(C2c3ccccc3C(=O)c3cc(Br)ccc32)c2ccc(Br)cc21 (centres unmarked) [CSC19]	--- (no such effect)	--- (no such effect)	--- (no such effect)	--- (no such effect)	–	–	–	–
O=C1C2C(c3ccccc3)NC(c3ccccc3)C1C(c1ccccc1)NC2c1ccccc1 (centres unmarked) [CSC29, 2,4,6,8-tetraphenyl-3,7-diazabicyclo[3.3.1]nonan-9-one]	--- (no such effect)	--- (no such effect)	--- (no such effect)	--- (no such effect)	–	–	–	–
Cc1cc(C)cc(C(=N)c2ccccc2Cc2cccc3ccccc23)c1 [CSC23, (3,5-dimethylphenyl)(2-(1-naphthylmethyl)phenyl)methanimine]	inhibition (significant inhibitory effects (>25% loss of activity))	--- (no such effect)	--- (no such effect)	--- (no such effect)	–	–	–	–
O=C1OC2(c3ccc(O)cc3Oc3cc(O)ccc32)c2c1c(-c1ccccc1)c(-c1ccccc1)c(-c1ccccc1)c2-c1ccccc1 [CSC28]	inhibition (significant inhibitory effects (>25% loss of activity))	--- (no such effect)	--- (no such effect)	activation	–	–	–	–

Further lines, with some results ahead:

Effect on the activity of Sirt2 (Sirt2; [1])	Effect on the activity of Sirt3 (Sirt3; [1])	Effect on the activity of Sirt5 (Sirt5; [2])	Effect on the activity of Sirt6 (Sirt6; [2])	SMILES	Effect on the activity of Sirt2 (Sirt2)	Effect on the activity of Sirt3 (Sirt3)	Effect on the activity of Sirt5 (Sirt5)	Effect on the activity of Sirt6 (Sirt6)
--- (no such effect)	--- (no such effect)	--- (no such effect)	--- (no such effect)	OC1(C(O)(c2ccc(-c3ccccc3)cc2)c2ccc(-c3ccccc3)cc2)CCCCC1 [CSC39, 1-(di[1,1'-biphenyl]-4-yl(hydroxy)methyl)cyclohexanol]	–	–	–	–
--- (no such effect)	--- (no such effect)	activation	activation	O=S1(=O)C(c2ccccc2)C(N2CCCCC2)C1C1CC2c3ccccc3C1c1ccccc12 (centres unmarked) [CSC33]	–	–	–	–
--- (no such effect)	--- (no such effect)	--- (no such effect)	--- (no such effect)	O=S1(=O)CCN(c2ccccc2CC(c2c[nH]c3ccccc23)c2c[nH]c3ccccc23)CC1 [CSC11, 3-(2-(2-(1,1-dioxido-4-thiomorpholinyl)phenyl)-1-(1H-indol-3-yl)ethyl)-1H-indole]	–	–	–	–
